# According to patent US20250127857A1, “A COMPOSITION COMPRISING IL-36 AND/OR IL-18 FOR USE IN TREATING OCULAR DISORDERS” (THE PROVOST, FELLOWS, FOUNDATION SCHOLARS, & THE OTHER …, priority 2021, published 2025):
# Columns and labels:
# occludin = assay: Occludin expression in HRMEC (qPCR and immunoblotting); assay type: cell-based, human
# Description: FIG. 18 illustrates IL-18 drives expression of tight junction protein occludin and inhibits VEGF depletion of occluding, wherein HRMECS were treated with either VEGF, IL-18 or IL-1α for the timepoints indicated (top panel) and cells were prepared for RNA isolation and qPCR with expression of occluding measured, wherein HRMECs were treated with VEGF, IL-18 or IL-1 or combinations of these cytokines and cells were prepared for immunoblotting for expression of occludin and b-actin (lower panels);
# Following transfer, membranes were blocked by incubating in 5% non-fat dried milk (Marvel) in TBS-T for 1 hour at room temperature whilst shaking. Membranes were incubated with primary antibody diluted in either 5% Marvel or BSA, depending on antibody specification, overnight at 4° C. with gentle agitation. Primary antibody was recovered and stored at −20. Membranes were washed three times in TBS-T for 5 minutes and membranes were incubated with secondary antibody, diluted in 5% Marvel, for 1 hour at room temperature. Secondary antibody was removed and discarded, and excess secondary was removed from the membranes by three 5-minute washes in TBS-T.
# All RT-PCR assays were carried out using the SensiFAST SYBR Hi-ROX Kit (Bioline) with primers designed using Primer-BLAST (NCBI). For each target a master-mix comprising of 4 μl SYBR Green mix, 0.5 μl of Forward primer (4 μM) and 0.5 μl of Reverse primer (4 μM) along and 3 μl of RNAse free H2O was prepared and mixed thoroughly by vortexing. 8 μl of master-mix was added to each well of a 0.1 mL MicroAMP® Fast 96-well Reaction Plate (Applied Biosystems), along with 2 μl of cDNA and sealed using Optical adhesive film (Applied Biosystems) and spun down for 30 seconds in a centrifuge fitted with microplate rotor (Eppendorf) before running. Plate were run using a QuantStudio 3 real-time PCR System (Applied Biosystems) or the StepOnePlus Real-Time PCR System (Applied Biosystems), with run conditions set as: 50° C. for 2 mins, 95° C. for 10 minutes, 40 cycles of 95° C. for 15 seconds then 60° C. for 1 minute. To assess the quality of Primers a melt-curve stage was added: 95° C. for 1 second, 60° C. for 20 seconds, 95° C. for 1 second. Data were analysed using the QuantStudio™ Design & Analysis software (Applied Biosystems) and using the comparative Ct (ΔΔCt) method where test samples were normalised to endogenous control (β-Actin) followed by normalising the ΔCt of test samples to sample control (untreated sample), then calculating 2^−ΔΔCt to find the relative fold change of test samples over sample control.
# VEGFR2 = assay: qPCR of VEGFR levels in HRMEC treated with IL-18; assay type: cell-based, human; details: IL-18 100 ng/ml over timepoints
# Description: FIG. 15 illustrates IL-18 reduces expression of VEGFR2 specifically in Human retinal endothelial cells (HRMECs), wherein HRMECs were treated with IL-18 (100 ng/ml) over timepoints indicated, wherein cells lysates were prepared for RNA isolation and underwent qPCR and ddCt method to assess relative expression of VEGFR levels, using B-actin as reference control, wherein RT-PCR data are means±SEM of n=3 independent experiments;
# Confluent HRMECs were stimulated with 50 or 100 ng/ml of recombinant human IL-18 (SB-485232; GSK); 10 ng/ml of human IL-1α (R&D systems) or 50 ng/ml of human VEGF165 (Peprotech) diluted in complete growth medium, with complete growth media added to wells alone for ‘no treatment’. […]
# All RT-PCR assays were carried out using the SensiFAST SYBR Hi-ROX Kit (Bioline) with primers designed using Primer-BLAST (NCBI). […] Data were analysed using the QuantStudio™ Design & Analysis software (Applied Biosystems) and using the comparative Ct (ΔΔCt) method where test samples were normalised to endogenous control (β-Actin) followed by normalising the ΔCt of test samples to sample control (untreated sample), then calculating 2^−ΔΔCt to find the relative fold change of test samples over sample control.
# HRMEC = assay: Wound healing (scratch) assay in HRMEC, IL-18; assay type: cell-based, human; details: for mean difference in wound closure vs no treatment (xdiff): IL-18, VEGF, bFGF each 50 ng/ml, closure expressed as % closure
# Description: FIG. 16 illustrates HRMEC migration in response to IL-18 and IL-1α stimulation, wherein confluent HRMEC monolayers were scratched with a pipette tip and treated with IL-18 (50 ng/ml) or IL-1α (10 ng/ml) along with bFGF (50 ng/ml) or VEGF (50 ng/ml) as positive controls, wherein images were taken immediately following scratch (0 hrs) and at 4, 8 and 24 hours following scratch, wherein images were analysed using ImageJ imaging software, wherein data are presented as mean±SEM of 6 separate experiments in triplicate, wherein data were analysed using 2way ANOVA with Dunnett's multiple comparison test. (*p<0.05, *p<0.01, ****p<0.0001);
# Cells were seeded on to a 12-well plate and grown until they reached confluency. 24 hours prior to the scratch, culture medium was replaced with 0.5% Serum media without supplements for 24 hours to induce cell quiescence. Cell monolayers were scratched once down the centre of the well using a p200 pipette tip and washed once with warmed DPBS to remove debris then replaced with 0.5% serum supplemented media with experimental treatments. Images were acquired using an Olympus IX51 inverted microscope with Cell^A imaging software (Olympus). Images were taken at baseline immediately following scratch and at suitable timepoints for up to 24 (HRMECs) or 48 hours (BMVECs). The area within the scratch was quantified using ImageJ software, and each timepoint was normalised to its baseline and expressed as % closure.
# [1] = tested on: primary human foetal RPE (hfRPE) cells; assay: Scratch assay in hfRPE cultures; assay type: cell-based; details: IL-18 10-1000 ng/ml, up to 18 hours
# Description: FIG. 19 illustrates IL-18 induces fibroblast-like cells to migrate to close a wound created in human Retinal Pigment Epithelium monolayer in vitro, wherein primary human foetal RPE (hfRPE) cells were treated with control medium (0 ng/ml) or increasing doses of IL-18 (10-1000 ng/ml) immediately after making a scratch through the centre of the well, wherein microscopy images were acquired at the same location at baseline (0 hours) and then every 2 hours until 18 hours, representative images for each treatment group are shown, wherein cells were stained with DAPI to show the nuclei, and phalloidin to show F-actin, wherein Brightfield images (phase) are also shown;
substance,measurement,setting,value
IL-18: recombinant human IL-18 (SB-485232; GSK),rescue of VEGF mediated occludin inhibition,"occludin; combination with VEGF, immunoblotting",can rescue VEGF inhibition of occluding
same,expression of tight junction protein occludin,occludin; single cytokine,increased expression of this tight junction protein
same,VEGFR2 expression,VEGFR2,specifically reduces VEGFR2
same,mean difference in wound closure vs no treatment (xdiff),HRMEC; 8 hours post scratch,−0.99
same,mean difference in wound closure vs no treatment (xdiff),HRMEC; 24 hours post scratch,−12.58
same,rate of wound closure,"HRMEC; IL-18 50 ng/ml, vs no treatment control",significantly increased the rate of wound closure
same,cell migration into wound in hfRPE monolayer,[1],appearance of fibroblast-like cells that migrated across the wound
